For experiment [1], the system named is Pseudomonas aeruginosa. As to the kind of experiment: Antimicrobial activity against Pseudomonas aeruginosa ATCC27853 assessed as colony formation at 50 uM preincubated for 1 hr followed by UV-light irradiation for 5 mins then culture on LB-agar plate for overnight by colony counting method. The class given is functional, organism-based.
Experiment [2] in a line: Inhibition of Pseudomonas aeruginosa RuvA/RuvB protein complex helicase activity expressed in Escherichia coli BL21(DE3) assessed as inhibition of HJ branch migration preincubated for 15 mins followed by substrate addition and measured after 1 hr using 5'-FAM labelled 5'-CACTGTGATGCACGATGATTGACGACAGTAGTCAGTGCTGCAGTGGTCAGGTGTC-3' HJ-a duplex DNA as substrate in presence of ATP by PAGE analysis.

Experiment [3] concerns Pseudomonas aeruginosa. As to the kind of experiment: Inhibition of Pseudomonas aeruginosa RuvA expressed in Escherichia coli BL21(DE3) binding to HJ DNA assessed as reduction in RuvA-HJ DNA complex formation at 40 uM and measured after 15 mins using 5'-FAM labelled Holliday junction DNA as substrate by EMSA analysis. In general terms: A gel shift assay detects complexes by their altered migration in electrophoresis.

Experiment [4] has as its system Pseudomonas aeruginosa. In words: Inhibition of Pseudomonas aeruginosa RuvA expressed in Escherichia coli BL21(DE3) binding to HJ DNA assessed as reduction in RuvA-HJ DNA complex formation at >10 uM and measured after 15 mins using 5'-FAM labelled Holliday junction DNA as substrate by EMSA analysis.
A short description of experiment [5]: Binding affinity to CM5 chip immobilized Pseudomonas aeruginosa RuvB D114N mutant expressed in Escherichia coli BL21(DE3) assessed as dissociation constant measured for 180 sec by surface plasmon resonance analysis. Background: In SPR one partner is held on a chip, and binding of the other changes the refractive index at the surface.
Experiment [6] relates to Pseudomonas aeruginosa. In words: Binding affinity to CM5 chip immobilized Pseudomonas aeruginosa RuvB D114N mutant expressed in Escherichia coli BL21(DE3) assessed as association rate constant (ka) measured for 240 sec by surface plasmon resonance analysis.
Experiment [7] is described as follows: Inhibition of Bacillus subtilis RuvA/RuvB protein complex helicase activity expressed in Escherichia coli BL21(DE3) assessed as inhibition of HJ branch migration preincubated for 15 mins followed by substrate addition and measured after 1 hr using 5'-FAM labelled 5'-CACTGTGATGCACGATGATTGACGACAGTAGTCAGTGCTGCAGTGGTCAGGTGTC-3' HJ-a duplex DNA as substrate in presence of ATP by PAGE analysis.

Experiment [8] in a line: Inhibition of HJ-DNA dependent Pseudomonas aeruginosa RuvB ATPase activity expressed in Escherichia coli BL21(DE3) assessed as inhibition of ATP hydrolysis preincubated with compound followed by ATP addition and measured after 1 hr by Kinase-Glo reagent based luminescence analysis.
Experiment [9] concerns Pseudomonas aeruginosa. In words: Binding affinity to CM5 chip immobilized Pseudomonas aeruginosa RuvB D114N mutant expressed in Escherichia coli BL21(DE3) assessed as dissociation rate constant (kd) measured for 180 sec by surface plasmon resonance analysis.
Experiment [10] deals with Pseudomonas aeruginosa. In words: Binding affinity to CM5 chip immobilized Pseudomonas aeruginosa wild type RuvB expressed in Escherichia coli BL21(DE3) assessed as dissociation rate constant (kd) measured for 180 sec by surface plasmon resonance analysis.
The nature of experiment [11]: Inhibition of Thermus thermophilus RuvA/RuvB protein complex helicase activity expressed in Escherichia coli BL21(DE3) assessed as inhibition of HJ branch migration preincubated for 15 mins followed by substrate addition and measured after 1 hr using 5'-FAM labelled 5'-CACTGTGATGCACGATGATTGACGACAGTAGTCAGTGCTGCAGTGGTCAGGTGTC-3' HJ-a duplex DNA as substrate in presence of ATP by PAGE analysis.

Experiment [12] relates to Pseudomonas aeruginosa. As to the kind of experiment: Binding affinity to CM5 chip immobilized Pseudomonas aeruginosa wild type RuvB expressed in Escherichia coli BL21(DE3) assessed as association rate constant (ka) measured for 240 sec by surface plasmon resonance analysis.
Experiment [13] is described as follows: Binding affinity to CM5 chip immobilized Pseudomonas aeruginosa wild type RuvB expressed in Escherichia coli BL21(DE3) assessed as dissociation constant measured for 180 sec by surface plasmon resonance analysis.
Experiment [14] relates to Pseudomonas aeruginosa. As to the kind of experiment: Inhibition of Pseudomonas aeruginosa RuvA expressed in Escherichia coli BL21(DE3) binding to HJ DNA assessed as reduction in RuvA-HJ DNA complex formation at >20 uM and measured after 15 mins using 5'-FAM labelled Holliday junction DNA as substrate by EMSA analysis.
The subject of experiment [15] is Pseudomonas aeruginosa. In words: Antimicrobial activity against Pseudomonas aeruginosa ATCC27853 assessed as colony formation at 2 uM preincubated for 1 hr followed by UV-light irradiation for 5 mins then culture on LB-agar plate for overnight by colony counting method. It is filed as functional, organism-based.

pIC50, pKd: −log10 of the molar value. Calls of active or inactive are those of the source. The rule behind the calls is not given here.

Data on three molecules can be found in ChEMBL document CHEMBL5214945, “Identification of small-molecule inhibitors of the DNA repair proteins RuvAB from Pseudomonas aeruginosa” (Bioorg Med Chem, 2022).

As for `COC(=O)[C@]12CCC(C)(C)C[C@H]1[C@H]1C(=O)C=C3[C@@]4(C)C=C(C#N)C(=O)C(C)(C)[C@@H]4CC[C@@]3(C)[C@]1(C)CC2` [BARDOXOLONE METHYL], in the experiment on Pseudomonas aeruginosa [1], the outcome was Active. Moreover, the negative logarithm of the IC50 (pIC50) (in general, −log10 of the IC50, conventionally taken in molar units) in [2] was 6.42. The inhibition result in the experiment on Pseudomonas aeruginosa [3] and in the experiment with Pseudomonas aeruginosa [4] was “Active” throughout.
Take `O=C(O[C@@H]1O[C@@H]2COC(=O)c3cc(O)c(O)c(O)c3-c3c(cc(O)c(O)c3O)C(=O)O[C@H]([C@H]1O)[C@@H]2O)c1cc(O)c(O)c(O)c1` [CORILAGIN]: the negative-log Kd (pKd) (usually the Kd on a negative log10 scale, so that one unit is a factor of ten) was 6.39 in experiment [5] and 6.89 in experiment [13]. The Ka in the experiment with Pseudomonas aeruginosa [6] is 5.9 10^3/M/s; in the experiment with Pseudomonas aeruginosa [12], 1.6 10^4/M/s. Also, the pIC50 in experiment [7] was 6.08; in experiment [8], 5.63; in experiment [2], 6.40; in experiment [11], 5.95. For the same molecule, in the experiment with Pseudomonas aeruginosa [1], the outcome was Active. Besides, the values for the Kdiss in the experiment on Pseudomonas aeruginosa [9] and in the experiment on Pseudomonas aeruginosa [10] were 2.4 10^-3/s and 2.2 10^-3/s, respectively.
Take `CC1=C(C)C(=O)C(CCCCCCCCCC[P+](c2ccccc2)(c2ccccc2)c2ccccc2)=CC1=O`: the inhibition result with Pseudomonas aeruginosa [14] and in the experiment with Pseudomonas aeruginosa [3] was “Active” each time. Besides, the figures for the negative-log IC50 (pIC50) in experiment [7], in experiment [2] and in [11] were 4.87, 5.33 and 5.10, respectively. In addition, the result with Pseudomonas aeruginosa [15] was Active.
